Results taken from PubChem BioAssay AID1845211 (Molecular Pharmacology Branch, DTP, NCI, 2023).
Values joined by “and” are separate entries in the source; they are usually repeats but may differ in a detail not shown here. Equal entries are not always repeated.

Test system: NCI-H322M multicellular tumor spheroids, viability (% test/control)
Assay: Anticancer human tumor NCI-H322M cell line growth inhibition;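 as to viability, T/C: spheroids exposed to compound for seven days before readout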
Settings: for viability, T/C: stronger effect = lower value
Excerpt: Multicellular complex tumor spheroid response to DNA repair inhibitors in combination with DNA-damaging drugs
This study explores the anticancer activities of DNA-damaging drugs and inhibitors of DNA damage repair, both as single agents and in combinations. Complex tumor spheroids comprised of malignant cells, endothelial cells and mesenchymal stem cells served as an in vitro model for human solid tumors. This model system incorporates physiologically relevant features and patient-derived or established malignant cell lines with clinically relevant genetic alterations from many tumor types. Twenty-six patient-derived or established malignant cell lines were evaluated representing sarcoma, melanoma, small cell lung cancer (SCLC), non-small cell lung cancer (NSCLC), as well as bladder, ovarian and pancreatic cancers. The concentration ranges selected for each drug and investigational agent were based upon clinically achievable concentrations if the clinical Cmax of the agent was known.
Compounds. The drugs and compounds olaparib (NSC753686), talazoparib (NSC767125), berzosertib (NSC777718), elimusertib (NSC800525), nedisertib (NSC802822), VX-984 (NSC792969), AZD-1390 (NSC803789), temozolomide (NSC362856), topotecan (NSC609699), trabectedin (NSC813783), staurosporine (NSC755774), and gemcitabine (NSC613327) were obtained from the National Cancer Institute (NCI) Developmental Therapeutics Program Chemical Repository. The FDA-approved anticancer drug set is available from the Developmental Therapeutics Program at https://dtp.cancer.gov/organization/dscb/obtaining/available_plates.htm. […] The stock solutions were prepared in dimethyl sulfoxide (DMSO, Sigma-Aldrich, St. Louis, MO, cat. D2650) at 400-fold the tested concentration and stored at -70 degrees C. Prior to their use, the stock solutions were diluted in fresh medium and the final DMSO concentration in the assay was 0.25% (v/v). All drugs and investigational agents were tested over a range starting from a high concentration at or near the clinical Cmax and decreasing in half-log increments. If the clinical Cmax for an agent had not been determined, the highest concentration tested was 10 microM.
Cell Lines. The patient-derived cancer cell (PDC) lines: 156681-154-R-J1-PDC, 283228-195-R-J1-PDC, 287954-098-R-J1-PDC, 292921-168-R-J2-PDC, 349418-098-R-PDC, 425362-245-T-J1-PDC, 556581-035-R-J1-PDC, and BL0293-F563-PDC were received from the NCI Patient-Derived Models Repository (PDMR, https://pdmr.cancer.gov). The established cell lines HS-SY-2 (RRID:CVCL_8719), MPNST, and SYO-1 (RRID:CVCL_7146) were obtained from the Sloan Kettering Institute. The alveolar soft parts sarcoma cell line ASPS-1 (RRID:CVCL_S738) was established at the NCI and grown from internal seed stocks. The following established cell lines were purchased from the American Type Culture Collection (ATCC, Manassas, VA): G-401 (ATCC, cat. CRL-1441, RRID:CVCL_0270), SW982 (ATCC, cat. HTB-93, RRID:CVCL_1734), VA-ES-BJ (ATCC, cat. CRL-2138, RRID:CVCL_1785), NCI-H719 (ATCC, cat. CRL-5837, RRID:CVCL_1582), NCI-H196 (ATCC, cat. CRL-5823, RRID:CVCL_1509), NCI-H841 (ATCC, cat. CRL-5845, RRID:CVCL_1595), NCI-H1618 (ATCC, cat. CRL-5879, RRID:CVCL_1480), NCI-H1876 (ATCC, cat. CRL-5902, RRID:CVCL_1503), DMS 114 (ATCC, cat. CRL-2066; RRID:CVCL_1174), NCI-H211 (ATCC, cat. CRL-5824; RRID:CVCL_1529), and SW 1271 (ATCC, cat. CRL-2177, RRID:CVCL_1716). The small cell lung cancer cell line COR-L88 was purchased from Sigma-Aldrich (cat. 92031917-1VL, RRID:CVCL_1141). The non-small cell lung cancer cell lines NCI-H226 (RRID:CVCL_1544) and NCI-H322M (RRID:CVCL_1557) were established at the NCI and grown from internal seed stocks. Pooled donor human umbilical vein endothelial cells (HUVEC, Lonza, cat. CC-2519) and human mesenchymal stem cells (hMSC, Lonza, cat. PT-2501) were purchased from Lonza (Walkersville, MD).
Cell Culture. All cells were maintained in an incubator at 37 degrees C and 5% CO2 with 95% humidity. […]

COc1cc(C)[nH]c(=O)c1CN1CCc2c(Cl)cc(C(OC)C3COC3)c(Cl)c2C1=O (configuration not stated) + Cn1nnc2c(C(N)=O)ncn2c1=O
IC50 (curve of first compound, second compound 1 µM): > 10 µM | IC50 (curve of first compound, second compound 3.16 µM): > 10 µM | IC50 (curve of first compound, second compound 10 µM): > 10 µM | IC50 (curve of first compound, second compound 31.6 µM): > 10 µM | IC50 (curve of first compound, second compound 100 µM): > 10 µM | viability, T/C (second compound 1 µM, first compound 0.0316 µM): 90.6% | viability, T/C (second compound 1 µM, first compound 0.1 µM): 93.2% | viability, T/C (second compound 1 µM, first compound 0.316 µM): 97.7% | viability, T/C (second compound 1 µM, first compound 1 µM): 106% | viability, T/C (second compound 1 µM, first compound 3.16 µM): 88.1% | viability, T/C (second compound 1 µM, first compound 10 µM): 93.3% | viability, T/C (second compound 3.16 µM, first compound 0.0316 µM): 97.5% | viability, T/C (second compound 3.16 µM, first compound 0.1 µM): 85.8% | viability, T/C (second compound 3.16 µM, first compound 0.316 µM): 97.4% | viability, T/C (second compound 3.16 µM, first compound 1 µM): 99.5% | viability, T/C (second compound 3.16 µM, first compound 3.16 µM): 95.4% | viability, T/C (second compound 3.16 µM, first compound 10 µM): 100% | viability, T/C (second compound 10 µM, first compound 0.0316 µM): 100% | viability, T/C (second compound 10 µM, first compound 0.1 µM): 108% | viability, T/C (second compound 10 µM, first compound 0.316 µM): 97.2% | viability, T/C (second compound 10 µM, first compound 1 µM): 92.3% | viability, T/C (second compound 10 µM, first compound 3.16 µM): 90.2% | viability, T/C (second compound 10 µM, first compound 10 µM): 91.6% | viability, T/C (second compound 31.6 µM, first compound 0.0316 µM): 91% | viability, T/C (second compound 31.6 µM, first compound 0.1 µM): 113% | viability, T/C (second compound 31.6 µM, first compound 0.316 µM): 102% | viability, T/C (second compound 31.6 µM, first compound 1 µM): 92.3% | viability, T/C (second compound 31.6 µM, first compound 3.16 µM): 94.1% | viability, T/C (second compound 31.6 µM, first compound 10 µM): 96.5% | viability, T/C (second compound 100 µM, first compound 0.0316 µM): 109% | viability, T/C (second compound 100 µM, first compound 0.1 µM): 106% | viability, T/C (second compound 100 µM, first compound 0.316 µM): 114% | viability, T/C (second compound 100 µM, first compound 1 µM): 89.7% | viability, T/C (second compound 100 µM, first compound 3.16 µM): 95% | viability, T/C (second compound 100 µM, first compound 10 µM): 101%

Cc1sc2c(c1C)C(c1ccc(Cl)cc1)=NC(CC(=O)Nc1ccc(O)cc1)c1nnc(C)n1-2 (configuration not stated)
viability, T/C (compound 0.00949 µM): 106% and 134% and 101% | viability, T/C (compound 0.03 µM): 114% and 110% and 109% | viability, T/C (compound 0.0949 µM): 122% and 129% and 130% | viability, T/C (compound 0.3 µM): 112% and 114% and 116% | viability, T/C (compound 0.949 µM): 86.2% and 95.3% and 76% | viability, T/C (compound 3 µM): 75.4% and 80.9% and 64% | IC50 (curve of compound): > 3 µM
